The target of the assay is T1, mPDE10A7 (Mus musculus, UniProt Q8CA95).
T1 sequence (Q8CA95 446-763 limits assumed): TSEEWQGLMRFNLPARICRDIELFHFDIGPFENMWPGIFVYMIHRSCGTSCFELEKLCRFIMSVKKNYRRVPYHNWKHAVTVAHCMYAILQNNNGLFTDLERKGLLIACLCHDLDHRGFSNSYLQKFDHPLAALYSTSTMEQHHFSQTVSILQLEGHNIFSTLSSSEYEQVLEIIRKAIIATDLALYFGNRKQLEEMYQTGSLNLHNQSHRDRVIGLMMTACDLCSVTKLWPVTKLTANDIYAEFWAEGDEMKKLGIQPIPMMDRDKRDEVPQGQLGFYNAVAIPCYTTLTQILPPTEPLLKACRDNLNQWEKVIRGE
Kind of assay: mPDE10A7 enzyme inhibition (IMAP fluorescence polarization, fluorescein labeled cAMP or cGMP). Format: biochemical. The protocol:
mPDE10A7 Enzyme Activity and Inhibition
To analyze the enzyme activity, 5 μL of serial diluted mPDE10A7 containing lysate were incubated with equal volumes of diluted (100-fold) fluorescein labeled cAMP or cGMP for 30 minutes in MDC HE 96-well assay plates at room temperature. Both the enzyme and the substrates were diluted in the following assay buffer: Tris/HCl (pH 8.0) 50 mM, MgCl2 5 mM, 2-mercaptoethanol 4 mM, BSA 0.33 mg/mL. After incubation, the reaction was stopped by adding 20 μL of diluted (400-fold) binding reagents and was incubated for an hour at room temperature. The plates were counted in an Analyst GT (Molecular Devices) for fluorescence polarization. An IMAP Assay kit (Molecular Device) was used to assess enzyme properties of mmPDE10A7. Data were analyzed with SoftMax Pro.
To check the inhibition profile, 10 μL of serial diluted compounds were incubated with 30 μl of diluted PDE enzymes in a 96-well polystyrene assay plate for 30 minutes at room temperature. After incubation, 5 μL of the compound-enzyme mixture were aliquoted into a MDC HE black plate, mixed with 5 μl of 100-fold diluted fluorescein labeled substrates (cAMP or cGMP), and incubated for 30 minutes at room temperature. The reaction was stopped by adding 20 μL of diluted binding reagents and counted in an Analyst GT for fluorescence polarization. The data were analyzed with SoftMax Pro.
(Fluorescence polarisation rises when a labelled molecule tumbles more slowly, as on binding a larger partner.)

Drawing on patent US20070093515A1, “Phosphodiesterase 10 inhibitors” (priority 2005, published 2007), this text covers IC50 for 1 compound.

A word on the IC50: it is the concentration needed to halve the response being measured.

As for `COCCOc1cccc2c1CCN(c1ncnc3cc(OC)c(OC)cc13)C2=O` [2-(6,7-dimethoxyquinazolin-4-yl)-5-(2-methoxyethoxy)-3,4-dihydroisoquinoline-1 (2H)-one], 219 nM corresponded to half-maximal inhibition (IC50).
